System: Long Evans rats
Assay: Progressive ratio (PR) test, Study B
Type: in vivo
Conditions: 0.025 mg/kg, rats
Procedure: General: Experiments were conducted to test psilocybin doses in the range of 0.01-0.2 mg/kg psilocybin administered S.C. across progressive ratio (PR) and 5-choice serial reaction time task (5CSRTT) to examine the effect of psilocybin on endophenotypes of motivation and attention. In each study, a population of out-bred Long Evans rats was first tested as a group for response to the PR and 5CSRTT. Each group was then divided into subgroups by tertiles according to performance, and then exposed to various dose levels immediately prior to re-testing at various psilocybin dose levels.
The PR test is used to answer how willing the test subject is to work for food (i.e. test of motivation). A single 45 mg food pellet (i.e. reinforcer) is made available to the test animal based on lever press response. To obtain each successive pellet, the animal must make increasingly more lever presses. Typically, a progression of 2, 4, 6, 9, 12, 15, 20, 25, 32, 40, 50, 62, 77, 95, 118, etc. is used, derived from the equation:
ratio=[5×e^(0.2×reinforcer #)−5]
At some point, the animal gives up as the motor demands to obtain a single pellet are not deemed worthwhile (i.e. animal reaches “break point” defined as animal's failure to earn a food pellet in 20 minutes).
Study B: Based on Study 1 outcome, a follow-up PR study was conducted utilizing a larger cohort size (72 rats total), and incorporating a lower dose of psilocybin (0.025 mg/kg SC) (FIG. 2C and FIG. 2D). […] Separation of rats based on the lowest average break point recorded over the 7 days prior to testing identified a “low responder” subgroup of N=24 rats. […] There was no treatment effect on session duration (F3,69=2.4; P=0.07, NS), although there was trend for this to be increased at the 0.1 mg/kg dose (Veh: 15.1+2.0 min; Psilo 0.1 mg/kg: 18.7+2.5 min).

CCN(CC)C(=O)[C@@H]1C=C2c3cccc4[nH]cc(c34)C[C@H]2N(C)C1 [LSD, D-lysergic acid diethylamide]
effect in PR test at lowest dose tested: no significant effect

Reference: patent US20230233584A1, “EXTENDED RELEASE 5-HT RECEPTOR AGONISTS FOR NEUROLOGICAL CONDITIONS” (Diamond Therapeutics Inc., priority 2020, published 2023)
